In brackets after ≈: the same amount, converted by molar mass.
How the values were obtained:
Assay type in all cases: cell-based
[1] = system: MKN-45 (human gastric carcinoma cell); experiment: In vitro anti-tumor cellular activity (MTT), MKN-45; details: 72 hours; for IC50: Homo sapiens
Method: (§1) After pouring the cell dissociation buffer to the centrifugetube, nutrient solution was added to stop digestion. The centrifugetube were centrifuged for 10 min under 800 r/min, the liquid supernatant was removed, 5 mL culture solution was added, after mixing by pipetting the cell, took 10 μL cell suspension to the cell counting plat, and adjusted the cell concentration to 10^4/well. Among the 96 wells, A1 is empty, 100 μL of cell suspension were added to the other wells. The 96 well plates were incubated in the incubator for 24 h. […] The 96-well plates were placed in an incubator and cultivated for 72 hours. (3) The culture media containing the compounds in the 96-well plates was discarded, and the cells were washed with phosphate buffered solution (PBS) twice. Each well was added with 100 μL MTT (tetrazole) (0.5 mg/mL), and then placed in an incubator to incubate for 4 hours, after which MTT solution was discarded and 100 μL dimethyl sulfoxide was added thereto.

[2] = system: MDA-MB-231 (human beast cancer cell); experiment: In vitro anti-tumor cellular activity (MTT), MDA-MB-231; details: 72 hours; for IC50: Homo sapiens
Method: as §1

[3] = system: H460 (human lung cancer cell); experiment: In vitro anti-tumor cellular activity (MTT), H460; details: for H460 IC50: 72 hours; for IC50: Homo sapiens, NCI-H460, 72 hours
Method: as §1

[4] = system: SMMC-7721 (hepatoma cell); experiment: In vitro anti-tumor cellular activity (MTT), SMMC-7721; details: 72 hours; for IC50: Homo sapiens
Method: as §1

[5] = system: U87MG (Human malignant glioblastoma cell); experiment: In vitro anti-tumor cellular activity (MTT), U87MG; details: 72 hours; for IC50: Homo sapiens, U-87 MG
Method: as §1

[6] = system: HT-29 (colon cancer cell); experiment: In vitro anti-tumor cellular activity (MTT), HT-29; details: 72 hours; for IC50: Homo sapiens
Method: as §1

Row | IC50 [1] [µg/mL] | IC50 [3] [µg/mL] | IC50 [4] [µg/mL] | IC50 [5] [µg/mL] | IC50 [6] [µg/mL] | Compound | MKN-45 IC50 [1] [µg/mL] | MDA-MB-231 IC50 [2] [µg/mL] | H460 IC50 [3] [µg/mL] | SMMC-7721 IC50 [4] [µg/mL] | U87MG IC50 [5] [µg/mL] | HT-29 IC50 [6] [µg/mL] | IC50 [2] [µg/mL]
1 | – | – | – | – | – | COc1cc2c(Oc3ccc(NC(=O)N/N=C/c4ccc(F)c(F)c4)cc3F)ccnc2cc1OCCCN1CCCC1 [Example 22, (E)-N^1-(3-fluoro-4-(6-methoxy-7-(3-(pyrrolidin-1-yl)propoxy)quinoline-4-lyoxy)phenyl)-N^4-(3,4-difluorobenzaldehyde)semicarbazone] | 0.37 | 0.31 | 0.29 | 1.2 | 0.66 | 0.19 | –
2 | 0.1 (≈ 0.153 µM) | 0.16 (≈ 0.245 µM) | 0.98 (≈ 1.5 µM) | 0.89 (≈ 1.37 µM) | 0.065 (≈ 0.0997 µM) | COc1cc2c(Oc3ccc(N(/N=C/c4c(O)ccc5ccccc45)C(N)=O)cc3F)ccnc2cc1OCCCN1CCC(C)CC1 [Example 21, (E)-N^1-(3-fluoro-4-(6-methoxy-7-(3-(4-methylpiperidin-1-yl)propoxy)quinoline-4-yloxy)phenyl)-N^4-(2-hydroxy-1-naphthaldehyde)semicarbazone] | – | – | – | – | – | – | 0.087 (≈ 0.133 µM)
3 | – | – | – | – | – | COc1cc2c(Oc3ccc(NC(=S)N/N=C/c4ccccc4)cc3F)ccnc2cc1OCCCN1CCC(C)CC1 [Example 37, (E)-N^1-(3-fluoro-4-(6-methoxy-7-(3-(4-methylpiperidin-1-yl)propoxy)quinoline-4-yloxy)phenyl)-N^4-(benzaldehyde)thiosemicarbazone] | 0.56 | 0.13 | 0.089 | 0.43 | 0.50 | 0.13 | –
4 | – | – | – | – | – | (E)-N^1-phenyl-N^4-(3-fluoro-4-(6-methoxy-7-(3-(4-methylpiperidin-1-yl)propoxy)quinoline-4-yloxy)benzaldehyde)thiosemicarbazone [Example 63] | 0.73 | 0.14 | 0.33 | 0.64 | 1.0 | 0.50 | –
5 | – | – | – | – | – | COc1cc2c(Oc3ccc(NC(=O)N/N=C/c4ccccc4)cc3F)ccnc2cc1OCCCN1CCN(C)CC1 [Example 4, (E)-N^1-(3-fluoro-4-(6-methoxy-7-(3-(4-methylpiperazin-1-yl)propoxy)quinoline-4-lyoxy)phenyl)-N^4-(benzaldehyde)semicarbazone] | 0.11 | 0.066 | 0.084 | 0.23 | 0.25 | 0.093 | –
6 | – | – | – | – | – | COc1cc2c(Oc3ccc(NC(=O)N/N=C/c4ccccc4)cc3F)ccnc2cc1OCCCN1CCC(C)CC1 [Example 2, (E)-N^1-(3-fluoro-4-(6-methoxy-7-(3-(4-methylpiperidin-1-yl)propoxy)quinoline-4-yloxy)phenyl)-N^4-(benzaldehyde)semicarbazone] | 0.18 | 0.12 | 0.15 | 0.43 | 0.31 | 0.17 | –
7 | – | – | – | – | – | COc1cc2c(Oc3ccc(NC(=O)N/N=C/c4ccc(F)cc4)cc3F)ccnc2cc1OCCCN1CCC(C)CC1 [Example 10, (E)-N^1-(3-fluoro-4-(6-methoxy-7-(3-(4-methylpiperidin-1-yl)propoxy)quinoline-4-lyoxy)phenyl)-N^4-(4-fluorobenzaldehyde)semicarbazone] | 0.038 | 0.011 | 0.0092 | 0.16 | 0.019 | 0.0015 | –
8 | – | – | – | – | – | COc1cc2c(Oc3ccc(NC(=O)N/N=C/c4ccc(Cl)cc4Cl)cc3F)ccnc2cc1OCCCN1CCCC1 [Example 19, (E)-N^1-(3-fluoro-4-(6-methoxy-7-(3-(pyrrolidin-1-yl)propox)quinoline-4-yloxy)phenyl)-N^4-(2,4-dichlorobenzaldehyde)semicarbozone] | 0.71 | 1.2 | 0.96 | 0.97 | 1.9 | 1.4 | –
9 | – | – | – | – | – | (E)-N^1-(3-fluoro-4-(6-methoxy-7-(3-(piperidin-1-yl)propoxy)quinolin-4-yloxy)phenyl)-N^4-(3,4-difluorobenzylidene)thiosemicarbazide [Example 31] | 0.11 | 0.059 | 0.041 | 0.39 | 0.22 | 0.013 | –
10 | – | – | – | – | – | COc1cc2c(Oc3ccc(NC(=O)NN=Cc4ccc(Cl)cc4Cl)cc3F)ccnc2cc1OCCCN1CCOCC1 [Example 20, (E)-N^1-(3-fluoro-4-(6-methoxy-7-(3-(morpholin-4-yl)propoxy)quinoline-4-yloxy)phenyl)-N^4-(2,4-dichlorobenzaldehyde)semicarbazone] | 1.5 | 1.7 | 1.1 | 6.7 | 4.2 | 0.84 | –
11 | – | – | – | – | – | (E)-N^1-(3-fluoro-4-(6-methoxy-7-(3-(piperidin-1-yl)propoxy)quinoline-4-yloxy)phenyl)-N^4-(2-nitrobenzaldehyde)thiosemicarbazone [Example 34] | 0.12 | 0.077 | 0.089 | 0.24 | 0.19 | 0.076 | –
12 | – | – | – | – | – | COc1cc2c(Oc3ccc(NC(=S)N/N=C/c4ccccc4[N+](=O)[O-])cc3F)ccnc2cc1OCCCN1CCCC1 [Example 32] | 0.33 | 0.13 | 0.19 | 0.77 | 1.2 | 0.24 | –
13 | 0.37 (≈ 0.609 µM) | 0.11 (≈ 0.181 µM) | 1 (≈ 1.65 µM) | 0.9 (≈ 1.48 µM) | 0.19 (≈ 0.313 µM) | COc1cc2c(Oc3ccc(N(/N=C/c4ccc(F)cc4)C(N)=S)cc3F)ccnc2cc1OCCCN1CCOCC1 [Example 45, (E)-N^1-(3-fluoro-4-(6-methoxy-7-(3-(morpholin-4-yl)propoxy)quinoline-4-yloxy)phenyl)-N^4-(4-fluorobenzaldehyde)thiosemicarbazone] | – | – | – | – | – | – | 0.17 (≈ 0.28 µM)
14 | – | – | – | – | – | COc1cc2c(Oc3ccc(/C=N/NC(=S)Nc4cccc(Br)c4)cc3F)ccnc2cc1OCCCN1CCOCC1 [Example 65, (E)-N^1-(3-bromophenyl)-N^4-(3-fluoro-4-(6-methoxy-7-(3-(morpholin-4-yl)propoxy)quinoline-4-yloxy)benzaldehyde)thiosemicarbazone] | 4.8 | 2.1 | 2.4 | 2.8 | 3.4 | 1.9 | –
15 | – | – | – | – | – | COc1cc2c(Oc3ccc(NC(=O)N/N=C(\C)c4ccccc4)cc3F)ccnc2cc1OCCCN1CCCCC1 [Example 17, (E)-N^1-(3-fluoro-4-(6-methoxy-7-(3-(piperidin-1-yl)propoxy)quinoline-4-yloxy)phenyl)-N^4-(acetophenone)semicarbazone] | 0.072 | 0.071 | 0.069 | 0.13 | 0.24 | 0.0057 | –
16 | – | – | – | – | – | COc1cc2c(Oc3ccc(C=NNC(=S)Nc4ccc(Cl)c(C(F)(F)F)c4)cc3F)ccnc2cc1OCCCN1CCC(C)CC1 [Example 64, (E)-N^1-[4-chloro-3-(trifluoromethyl)phenyl]-N^4-(3-fluoro-4-(6-methoxy-7-(3-(4-methylpiperidin-1-yl)propoxy)quinoline-4-yloxy)benzaldehyde)thiosemicarbazone] | 0.65 | 0.98 | 0.56 | 1.0 | 1.7 | 0.34 | –
17 | 0.2 (≈ 0.324 µM) | 1.3 (≈ 2.1 µM) | 0.53 (≈ 0.858 µM) | 1.4 (≈ 2.27 µM) | 0.59 (≈ 0.955 µM) | COc1cc2c(Oc3ccc(N(/N=C/c4cc(C)c(O)c(C)c4)C(N)=O)cc3F)ccnc2cc1OCCCN1CCOCC1 [Example 27, (E)-N^1-(3-fluoro-4-(6-methoxy-7-(3-(morpholin-4-yl)propoxy)quinoline-4-yloxy)phenyl)-N^4-(3,5-dimethyl-4-hydroxybenzaldehyde)semicarbazone] | – | – | – | – | – | – | 0.96 (≈ 1.55 µM)
18 | – | – | – | – | – | (E)-N^1-(3-fluoro-4-(6-methoxy-7-(3-(piperidin-1-yl)propoxy)quinoline-4-yloxy)phenyl)-N^4-(2,4-dichlorobenzaldehyde)thiosemicarbazone [Example 41] | 0.10 | 0.088 | 0.097 | 0.66 | 0.54 | 0.13 | –

Source: patent publication US9783499B2, “Quinoline derivatives and their applications” (Shenyang Pharmaceutical University, priority 2012, dated 2017)
